Data set [1] relates to ICR female mice. The note with it: single oral dose (rutin 1500, quercetin 125, kaempherol 1000, vitexin 500 mg/kg), observed 30 days.
For data set [2], the system named is liver of rabbits fed 1% cholesterol diet. The data set is described as follows: Fatty degeneration in the liver of the rabbits. Particulars: 1% cholesterol plus 0.15% bioflavonoid or 1.5 mg/kg Simvastatin. It counts as in vivo, rabbit. From the text: According to the report of Fogt F. and Nanji A., (Toxicology and Applied Pharmacology; 136, pp 87-93, 1996) and Keegan A. et al., (Journal of Hepatology; 23, pp 591-600, 1995). […]

Data set [3] concerns thoracic aorta of rabbits fed 1% cholesterol diet. As to the kind of experiment: Analysis for fatty streak deposition in thoracic aorta. It is filed as in vivo, rabbit. The note with it: microscopic pictures, 1% cholesterol plus 0.15% bioflavonoid or 1.5 mg/kg simvastatin, control: thick layer. The method, then:
The chest wall of each rabbit (sacrificed in Step B) was incised, a portion of thoracic aorta from 1 cm site above aortic valve downward for 5 cm was cut out. The surrounding fatty tissues were removed, the aorta was incised longitudinally and pinned to a dish. The moist aorta was then photographed, and staining of fatty streak was carried out with the method described by Esper, E. et al. (Journal of Lab. Clinical Medicine; 121, pp 103-110(1993)) as follows.
The opened portion of aortas were pinned to a wooden tongue depressor, washed three times for 2 minutes with anhydrous propylene glycol and stained for 30 minutes with saturated solution of Oil Red O dissolved in propylene glycol. Then the aortas were washed twice for 3 minutes with 85% propylene glycol, to remove remaining staining solution by washing with normal saline solution. The aortas were photographed, and the photographs were traced with an image analyzer (LEICA, Q-600, Germany), and the area of stained portion were fatty streak region, its proportion in percentile (%) to the total aorta area were calculated.

The target in data set [4] is T1, 3-HMG-CoA reductase (Oryctolagus cuniculus, UniProt Q29512).
T1 construct: ultracentrifuged at 100,000 times gram for 60 minutes and again for another 60 minutes to obtain microsomal precipitates; from tissue; host or cells: rabbit liver microsomes
T1 sequence (Q29512 1-888): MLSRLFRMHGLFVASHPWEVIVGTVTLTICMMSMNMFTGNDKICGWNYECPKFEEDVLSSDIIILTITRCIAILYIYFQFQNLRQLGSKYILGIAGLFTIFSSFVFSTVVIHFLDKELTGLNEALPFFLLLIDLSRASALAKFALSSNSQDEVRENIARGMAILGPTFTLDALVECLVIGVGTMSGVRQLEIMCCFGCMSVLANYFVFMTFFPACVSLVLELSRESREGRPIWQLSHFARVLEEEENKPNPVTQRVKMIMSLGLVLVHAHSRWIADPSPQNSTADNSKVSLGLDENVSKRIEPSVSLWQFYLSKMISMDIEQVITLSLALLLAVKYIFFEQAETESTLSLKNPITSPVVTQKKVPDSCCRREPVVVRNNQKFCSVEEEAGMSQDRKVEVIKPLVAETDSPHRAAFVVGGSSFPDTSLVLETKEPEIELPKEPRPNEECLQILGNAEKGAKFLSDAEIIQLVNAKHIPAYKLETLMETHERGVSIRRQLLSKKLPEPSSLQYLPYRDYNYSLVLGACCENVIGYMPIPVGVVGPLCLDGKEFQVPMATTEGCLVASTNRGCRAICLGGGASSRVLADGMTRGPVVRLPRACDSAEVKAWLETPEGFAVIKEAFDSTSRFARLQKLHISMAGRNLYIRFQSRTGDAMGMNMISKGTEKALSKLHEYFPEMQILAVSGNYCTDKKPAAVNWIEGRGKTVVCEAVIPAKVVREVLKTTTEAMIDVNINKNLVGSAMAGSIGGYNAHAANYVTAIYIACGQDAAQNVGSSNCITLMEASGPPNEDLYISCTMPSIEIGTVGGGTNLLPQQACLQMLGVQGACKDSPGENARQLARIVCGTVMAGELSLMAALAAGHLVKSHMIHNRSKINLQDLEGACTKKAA
The data set is described as follows: Activity of 3-HMG-CoA reductase in liver microsomes (modified Hulcher's method). It is filed as biochemical, rabbit. Particulars: liver microsomes of rabbits fed 8 weeks 1% cholesterol plus 0.15% bioflavonoid; control group 0%. (Liver microsomes are a subcellular fraction often used to study metabolism.)
Protocol: The activity of 3-HMG-CoA reductase was determined by modified Hulcher's method (Journal of lipid research; 14, 625-641, 1973), in which the concentration of Co-A will be produced when 3-HMG-CoA is reduced to mevalonate salt by the action of the 3-HMG-CoA reductase; then the reductase was determined by spectroscopy and the activity of the 3-HMG-CoA reductase was calculated.
Liver tissues from each group of rabbits from Example 4 Step B were obtained, 3 gram of tissue was washed with 100 ml of cold normal saline (1 N NaCl) and 100 ml of cold buffer solution-A (0.1M triethanolamine HCl/10 mM EDTA/10 mM dithiothreitol (DTT)). A cold buffered solution-A and liver tissue ratio was 2 ml per each gram. Then the mixture was minced and homogenized with a homogenizer, the homogenate was centrifuged at 20,000 times gram for 15 minutes, the supernatant was ultracentrifuged at 100,000 times gram for 60 minutes and again for another 60 minutes to obtain microsomal precipitates. The precipitates were washed with cold buffer solution-A and kept at minus 70 degree C. till ready for analysis.
There were 3 reactive substrates used in this assay (a) buffer solution B; 0.1 M triethanolamine HCl/10 mM EDTA with ph 7.4 (b) 3-HMG-CoA solution; 150 mu.moles/culture medium, (c) NADPH solution; 2 mu.moles/culture medium.
The microsomal suspension was then mixed with reaction substrates in a centrifuge tube and allowed to react at 37 degree C. for 30 minutes, then added with 20 mu 1 of 10 mM sodium arsenous solution and allowed to react for 1 minute, and then added with 100 µl of citrate buffer solution (2M sodium citrate/3 M sodium tungstate, with Ph of 3.5) at 37 degree C. for 10 minutes, then centrifuged at 30,000 times gram for 15 minutes to remove protein. […]
The mixture was then added with 20 µl of DTNB buffer solution (3 mM DTNB/0.1M triethanolamine/10 mM EDTA with PH of 7.4). The absorbance of this mixture was determined at wave length of 412 nm to calculate the amount of CoA that is the activity of 3-HMG-CoA reductase.

Turning to `O=c1c(O)c(-c2ccc(O)cc2)oc2cc(O)cc(O)c12` [Kaempherol, 3,5,7,4′ tetra-hydroxy-flavone], the survival result in data set [1] is listed as “alive at day 31”. Further, in data set [2], the “microscopic features of the liver (FIGS. 2B-2F)” value (shortened to “microscopic features”) is given as “almost all of the liver cells are normal without containing fat particles”. The “macrophage lipid cell complex in the aorta walls (FIGS. IB-IF)” value (“macrophage lipid cell complex” below) in data set [3] is recorded as “no or a very thin layer of macrophage lipid cell complex”.
Consider `O=c1c(O)c(-c2ccc(O)c(O)c2)oc2cc(O)cc(O)c12` [Quercetin, 3,5,7,3′,4′ penta-hydroxy flavone], for which the survival entry in data set [1] is recorded as “alive at day 31”. Besides, the “microscopic features” value in data set [2] is reported as “almost all of the liver cells are normal without containing fat particles”. For the same compound, in data set [3], the “macrophage lipid cell complex” value is on record as “no or a very thin layer of macrophage lipid cell complex”. Also, in data set [4], the “Inhibition on the activity of 3-HMG-CoA reductase in percentage (%)” value turned out to be 32%.
Regarding `C[C@@H]1O[C@@H](OC[C@H]2O[C@@H](Oc3c(-c4ccc(O)c(O)c4)oc4cc(O)cc(O)c4c3=O)[C@H](O)[C@@H](O)[C@@H]2O)[C@H](O)[C@H](O)[C@H]1O` [Rutin, quercetin-3-rutinoside], in data set [1], the body weight result is “no body weight loss” and the survival entry is “alive at day 31”. For the same compound, the “Inhibition on the activity of 3-HMG-CoA reductase in percentage (%)” value in data set [4] is 45%.
For `O=c1cc(-c2ccc(O)cc2)oc2c(C3O[C@H](CO)[C@@H](O)[C@H](O)[C@H]3O)c(O)cc(O)c12` (stereo partly drawn) [Vitexin, 8-D-glucosyl-4′,5,7 trihydroxy-flavone], in data set [1], the body weight result is “no body weight loss” and the survival result is recorded as “alive at day 31”. Moreover, the “microscopic features” value in data set [2] is given as “almost all of the liver cells are normal without containing fat particles”. Moreover, in data set [3], the “macrophage lipid cell complex” value is “no or a very thin layer of macrophage lipid cell complex”. Moreover, the “Inhibition on the activity of 3-HMG-CoA reductase in percentage (%)” value in data set [4] is recorded as 30%.
